Results reported in ChEMBL document CHEMBL1828593 (Bioorg Med Chem, 2011).
Active and inactive are the calls of the source. The rule behind the calls is not given here.

Assays:
[1] = biological target: T1, Neuronal acetylcholine receptor subunit alpha-7 (Homo sapiens, UniProt P36544); test: Competitive inhibition of human alpha7 nAChR expressed in Xenopus oocytes by electrophysiology assay; type: cell-based; conditions: Oocyte
[2] = biological target: T2, Neuronal acetylcholine receptor; alpha4/beta2 (Homo sapiens, UniProt P17787+P43681); test: Displacement of [3H]epibatidine from human alpha4beta2 nAChR expressed in human HEK293T cells after 1.5 hrs by liquid scintillation counting; type: cell-based; conditions: HEK-293T
T2 sequence (P17787 whole entry): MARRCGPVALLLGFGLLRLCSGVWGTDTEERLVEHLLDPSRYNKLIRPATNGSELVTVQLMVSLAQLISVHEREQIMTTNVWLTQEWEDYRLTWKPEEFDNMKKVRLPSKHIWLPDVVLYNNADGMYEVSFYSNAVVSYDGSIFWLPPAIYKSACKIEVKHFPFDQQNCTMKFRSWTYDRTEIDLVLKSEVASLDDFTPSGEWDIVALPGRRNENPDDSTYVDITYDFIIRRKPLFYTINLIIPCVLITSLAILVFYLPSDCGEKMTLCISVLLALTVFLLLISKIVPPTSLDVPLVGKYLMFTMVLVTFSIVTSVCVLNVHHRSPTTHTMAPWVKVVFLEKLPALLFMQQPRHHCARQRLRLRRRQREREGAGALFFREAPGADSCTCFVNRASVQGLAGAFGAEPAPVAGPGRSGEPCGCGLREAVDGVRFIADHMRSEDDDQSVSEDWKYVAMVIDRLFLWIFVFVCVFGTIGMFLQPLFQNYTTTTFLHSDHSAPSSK
T2 sequence (P43681 whole entry): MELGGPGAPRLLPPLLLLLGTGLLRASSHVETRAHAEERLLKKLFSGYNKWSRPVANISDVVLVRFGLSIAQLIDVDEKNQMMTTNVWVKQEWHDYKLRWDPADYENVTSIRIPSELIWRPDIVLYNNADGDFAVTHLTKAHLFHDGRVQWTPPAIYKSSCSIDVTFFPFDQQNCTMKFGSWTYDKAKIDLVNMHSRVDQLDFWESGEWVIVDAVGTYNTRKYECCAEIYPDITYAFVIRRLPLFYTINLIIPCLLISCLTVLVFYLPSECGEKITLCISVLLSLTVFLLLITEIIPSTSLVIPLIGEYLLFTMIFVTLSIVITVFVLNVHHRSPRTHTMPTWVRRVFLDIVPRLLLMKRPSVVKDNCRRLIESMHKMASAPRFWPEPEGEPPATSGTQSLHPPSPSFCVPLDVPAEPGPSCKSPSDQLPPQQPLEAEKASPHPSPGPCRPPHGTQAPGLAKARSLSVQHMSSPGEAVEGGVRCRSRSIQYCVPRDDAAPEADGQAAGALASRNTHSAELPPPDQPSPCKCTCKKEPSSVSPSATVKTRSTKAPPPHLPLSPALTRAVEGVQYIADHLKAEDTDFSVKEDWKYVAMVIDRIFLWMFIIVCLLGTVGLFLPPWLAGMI

[3] = biological target: T2, Neuronal acetylcholine receptor; alpha4/beta2; test: Competitive inhibition of human alpha4beta2 nAChR expressed in Xenopus oocytes by electrophysiology assay; type: cell-based; conditions: Oocyte
[4] = Displacement of [3H]epibatidine from histidine-tagged Aplysia californica AChBP expressed in Sf9 cells after 1.5 hrs by liquid scintillation counting
[5] = biological target: T2, Neuronal acetylcholine receptor; alpha4/beta2; test: Antagonist activity at human alpha4beta2 nAChR high affinity site expressed in Xenopus oocytes assessed as inhibition of acetylcholine-induced effect at 10 uM by electrophysiology assay; type: functional, cell-based; conditions: Oocyte
[6] = biological target: T2, Neuronal acetylcholine receptor; alpha4/beta2; test: Antagonist activity at human alpha4beta2 nAChR expressed in Xenopus oocytes assessed as increase of acetylcholine-induced effect by electrophysiology assay; type: functional, cell-based, Oocyte
[7] = biological target: Acetylcholine-binding protein (Lymnaea stagnalis, UniProt P58154); test: Displacement of [3H]-epibatidine from histidine-tagged Lymnaea stagnalis AChBP expressed in Sf9 cells after 1.5 hrs by liquid scintillation counting
Chain of Acetylcholine-binding protein (P58154 whole entry): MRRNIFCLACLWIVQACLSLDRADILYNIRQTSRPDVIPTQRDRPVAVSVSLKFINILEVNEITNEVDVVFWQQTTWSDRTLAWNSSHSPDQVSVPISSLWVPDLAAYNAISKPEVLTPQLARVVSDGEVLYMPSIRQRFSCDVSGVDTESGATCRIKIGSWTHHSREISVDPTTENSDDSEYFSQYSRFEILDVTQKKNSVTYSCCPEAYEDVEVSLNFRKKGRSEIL

[8] = biological target: T1, Neuronal acetylcholine receptor subunit alpha-7; test: Antagonist activity at human alpha7 nAChR low affinity site expressed in Xenopus oocytes assessed as inhibition of acetylcholine-induced effect at 7 uM by electrophysiology assay; type: functional, cell-based; conditions: Oocyte
[9] = biological target: T1, Neuronal acetylcholine receptor subunit alpha-7; test: Displacement of [3H]-MLA from human alpha7 nAChR expressed in human SH-SY5Y cells after 1.5 hrs by liquid scintillation counting; type: cell-based
[10] = biological target: T2, Neuronal acetylcholine receptor; alpha4/beta2; test: Antagonist activity at human alpha4beta2 nAChR low affinity site expressed in Xenopus oocytes assessed as inhibition of acetylcholine-induced effect at 10 uM by electrophysiology assay; type: functional, cell-based; conditions: Oocyte
[11] = biological target: T1, Neuronal acetylcholine receptor subunit alpha-7; test: Antagonist activity at human alpha7 nAChR expressed in Xenopus oocytes assessed as acetylcholine-induced effect at 100 uM by electrophysiology assay; type: functional, cell-based; conditions: Oocyte
[12] = biological target: T2, Neuronal acetylcholine receptor; alpha4/beta2; test: Antagonist activity at human alpha4beta2 nAChR expressed in Xenopus oocytes assessed as inhibition of acetylcholine-induced effect at 100 uM by electrophysiology assay; type: functional, cell-based; conditions: Oocyte
[13] = biological target: T1, Neuronal acetylcholine receptor subunit alpha-7; test: Antagonist activity at human alpha7 nAChR expressed in Xenopus oocytes assessed as increase of acetylcholine-induced effect by electrophysiology assay; type: functional, cell-based, Oocyte
[14] = biological target: T2, Neuronal acetylcholine receptor; alpha4/beta2; test: Antagonist activity at human alpha4beta2 nAChR high affinity site expressed in Xenopus oocytes assessed as inhibition of acetylcholine-induced effect at 220 uM by electrophysiology assay; type: functional, cell-based; conditions: Oocyte
[15] = biological target: T1, Neuronal acetylcholine receptor subunit alpha-7; test: Antagonist activity at human alpha7 nAChR low affinity site expressed in Xenopus oocytes assessed as inhibition of acetylcholine-induced effect at 20 uM by electrophysiology assay; type: functional, cell-based; conditions: Oocyte
[16] = biological target: T2, Neuronal acetylcholine receptor; alpha4/beta2; test: Antagonist activity at human alpha4beta2 nAChR low affinity site expressed in Xenopus oocytes assessed as inhibition of acetylcholine-induced effect at 220 uM by electrophysiology assay; type: functional, cell-based; conditions: Oocyte
[17] = biological target: T1, Neuronal acetylcholine receptor subunit alpha-7; test: Antagonist activity at human alpha7 nAChR low affinity site expressed in Xenopus oocytes assessed as inhibition of acetylcholine-induced effect at 10 uM by electrophysiology assay; type: functional, cell-based; conditions: Oocyte
[18] = biological target: T2, Neuronal acetylcholine receptor; alpha4/beta2; test: Antagonist activity at human alpha4beta2 nAChR low affinity site expressed in Xenopus oocytes assessed as inhibition of acetylcholine-induced effect at 55 uM by electrophysiology assay; type: functional, cell-based; conditions: Oocyte
[19] = biological target: T2, Neuronal acetylcholine receptor; alpha4/beta2; test: Antagonist activity at human alpha4beta2 nAChR high affinity site expressed in Xenopus oocytes assessed as inhibition of acetylcholine-induced effect at 55 uM by electrophysiology assay; type: functional, cell-based; conditions: Oocyte

T1 sequence (P36544 whole entry): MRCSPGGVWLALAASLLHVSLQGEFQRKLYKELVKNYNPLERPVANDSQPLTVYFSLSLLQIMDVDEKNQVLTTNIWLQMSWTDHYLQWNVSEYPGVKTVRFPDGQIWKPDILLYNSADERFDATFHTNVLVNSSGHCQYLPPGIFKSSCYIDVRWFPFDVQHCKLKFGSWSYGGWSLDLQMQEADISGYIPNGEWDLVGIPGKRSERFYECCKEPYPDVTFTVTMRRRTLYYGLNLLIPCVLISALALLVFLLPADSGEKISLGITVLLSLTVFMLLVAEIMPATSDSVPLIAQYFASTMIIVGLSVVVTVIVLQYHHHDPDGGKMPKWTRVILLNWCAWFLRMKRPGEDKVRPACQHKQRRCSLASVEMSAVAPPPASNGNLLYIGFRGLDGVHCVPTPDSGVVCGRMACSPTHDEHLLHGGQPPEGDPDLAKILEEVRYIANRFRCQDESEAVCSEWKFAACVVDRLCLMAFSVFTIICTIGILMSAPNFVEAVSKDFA

With `NCC(OCc1ccc(Cl)cc1)c1ccccc1` (stereo not drawn) the inhibition [1] was “Active”, the Activity [2] was “inactive” and the inhibition [3] was “inactive”. The pKi [4] was 4.9, the inhibition [5] was 13% and the EC50 [6] was 10 µM. The Ki [7] was 6.31 µM, the inhibition [8] was “Active” and the Ki [9] was at least 31.6 µM. The inhibition [10] was 87%.
In the case of `CN1CCC(c2noc3ccccc23)CC1`, the Activity [2] is reported as “inactive”, the Ki [7] is reported as 12.6 µM and the Ki [9] is reported as at least 31.6 µM.
With `c1ccc2c(c1)CCc1ccccc1C2NC12CC3CC(CC(C3)C1)C2` the Activity [2] was “inactive”, the Ki [7] was at least 31.6 µM and the inhibition [11] was “inactive”. For the same molecule, the Ki [9] was at least 31.6 µM and the inhibition [12] was “inactive”.
For `CN1CC2Cc3ccccc3C1c1ccccc12` (stereo not drawn), the Activity [2] was “inactive”, the EC50 [6] was 10 µM and the Ki [7] was 0.794 µM. The Ki [9] was at least 31.6 µM.
With `c1ccc2c(CN3CCCCC3)csc2c1` the Activity [2] was “inactive”, the Ki [7] was 1 µM and the Ki [9] was 15.8 µM.
With `NCC(c1ccccc1)c1ccc(-c2ccccc2)cc1` (stereo not drawn) the Activity [2] was “inactive”, the EC50 [6] was 10 µM and the Ki [7] was 12.6 µM. It also gave a Ki [9] of at least 31.6 µM.
In the case of `Cc1ccccc1C(OCCN1CCCCC1)c1ccccc1` (stereo not drawn), the Activity [2] is reported as “inactive”, the Ki [7] is reported as 0.316 µM and the Ki [9] is reported as 20 µM.
With `OC(COCc1ccc(Cl)cc1)CN1CCc2ccccc2C1` (stereo not drawn) the Activity [2] was “inactive”, the Ki [7] was 1.58 µM and the Ki [9] was at least 31.6 µM.
For `O=C1COc2ccccc2N1CCCCN1CCc2ccccc2C1`, the Activity [2] was “inactive”, the Ki [7] was 0.501 µM and the Ki [9] was at least 31.6 µM.
With `CC(C)(C)c1ccc(C(CN)c2ccccc2)cc1` (stereo not drawn) the Activity [2] was “inactive”, the Ki [7] was at least 31.6 µM and the Ki [9] was at least 31.6 µM.
In the case of `CC(C)(C)C(N)/C=C/c1ccc(Cl)cc1Cl` (stereo not drawn), the Activity [2] is reported as “inactive”, the Ki [7] is reported as 12.6 µM and the Ki [9] is reported as at least 31.6 µM.
In the case of `O=C1CN(Cc2ccccc2)Cc2ccsc21`, the Activity [2] is reported as “inactive”, the Ki [7] is reported as at least 31.6 µM and the inhibition [11] is reported as “inactive”. For the same molecule, the Ki [9] was at least 31.6 µM and the inhibition [12] was “inactive”.
In the case of `CCN(CC)Cc1csc2ccc(Cl)cc12`, the Activity [2] is reported as “inactive”, the Ki [7] is reported as 3.98 µM and the Ki [9] is reported as at least 31.6 µM.
In the case of `ClC1(CNc2ccccc2)CCN(Cc2ccccc2)CC1`, the Activity [2] is reported as “inactive”, the Ki [7] is reported as 1.58 µM and the Ki [9] is reported as at least 31.6 µM.
In the case of `C=CC1CN2CCC1CC2c1[nH]c2ccccc2c1CCO` (stereo not drawn), the Activity [2] is reported as “inactive”, the Ki [7] is reported as 0.398 µM and the Ki [9] is reported as at least 31.6 µM.
In the case of `c1ccc(C2CCN(CCc3nc4ccccc4[nH]3)CC2)cc1`, the Activity [2] is reported as “inactive”, the Ki [7] is reported as 2.51 µM and the EC50 [13] is reported as 10 µM. The Ki [9] was at least 31.6 µM.
In the case of `Cc1ccc(C(OCC2CCC[N+](C)(C)C2)c2ccccc2)cc1` (stereo not drawn), the Activity [2] is reported as “inactive”, the Ki [7] is reported as 0.501 µM and the Ki [9] is reported as 10 µM.
In the case of `CC(=O)OCC[N+](C)(C)C` [ACETYLCHOLINE], the pKi [4] is reported as 4.3 and the Ki [7] is reported as 6.31 µM.
For `NCC(OCc1ccc(Cl)cc1Cl)c1ccccc1` (stereo not drawn), the Activity [2] was “inactive”, the EC50 [6] was 10 µM and the Ki [7] was 5.01 µM. For the same molecule, the Ki [9] was at least 31.6 µM.
In the case of `CC1NCCOC1c1ccc(Cl)cc1` (stereo not drawn), the Activity [2] is reported as “inactive”, the inhibition [14] is reported as 19% and the inhibition [15] is reported as “Active”. It also gave a Ki [7] of 12.6 µM, an inhibition [16] of 81% and an EC50 [13] of 10 µM. The Ki [9] was at least 31.6 µM.
With `C[N+]1(CCO)Cc2sc3ccc(Cl)cc3c2C1` (stereo not drawn) the Activity [2] was “inactive”, the Ki [7] was 1 µM and the Ki [9] was 20 µM.
With `NCc1ccsc1C(O)c1ccccc1` (stereo not drawn) the Activity [2] was “inactive”, the Ki [7] was 25.1 µM and the Ki [9] was at least 31.6 µM.
With `CC1CC2(CCCCC2)NCc2ccccc21` (stereo not drawn) the Activity [2] was “inactive”, the Ki [7] was 0.631 µM and the Ki [9] was at least 31.6 µM.
For `CC(Cc1ccccc1)NC1CN2CCC1CC2` (stereo not drawn), the Activity [2] was “inactive”, the Ki [7] was 3.16 µM and the Ki [9] was at least 31.6 µM.
In the case of `c1ccc2c3c([nH]c2c1)C1CCCN1CC3` (stereo not drawn), the Activity [2] is reported as “inactive”, the Ki [7] is reported as 1.26 µM and the Ki [9] is reported as at least 31.6 µM.
With `NCC(c1ccc(Cl)cc1)c1ccc(Sc2ccccc2)cc1` (stereo not drawn) the Activity [2] was “inactive”, the inhibition [3] was “inactive” and the Ki [7] was at least 31.6 µM. The EC50 [13] was 10 µM and the Ki [9] was at least 31.6 µM.
With `CC1CC[N+]2(C)CCc3c([nH]c4ccccc34)C2C1` (stereo not drawn) the Activity [2] was “inactive”, the Ki [7] was 0.631 µM and the Ki [9] was at least 31.6 µM.
With `CN1CCN(Cc2ccccc2Sc2ccccc2)CC1` the Activity [2] was “inactive”, the Ki [7] was 1.58 µM and the Ki [9] was 20 µM.
In the case of `CSc1[nH]c2ccccc2c1CN1CCCCC1`, the Activity [2] is reported as “inactive”, the Ki [7] is reported as 1.58 µM and the Ki [9] is reported as 3.98 µM.
In the case of `c1ccc(C2CCN(CCc3cc4ccccc4[nH]3)CC2)cc1`, the inhibition [1] is reported as “Active”, the Activity [2] is reported as “inactive” and the inhibition [3] is reported as “inactive”. The pKi [4] was 5.3, the Ki [7] was 1 µM and the inhibition [17] was “Active”. It also gave an EC50 [13] of 10 µM, an inhibition [18] of 75% and an inhibition [19] of 25%. It also gave a Ki [9] of at least 31.6 µM.
For `Cc1ccc(C(c2ccc(C)cc2)N(C)C)cc1`, the Activity [2] was “inactive”, the Ki [7] was at least 31.6 µM and the EC50 [13] was 10 µM. For the same molecule, the Ki [9] was at least 31.6 µM.
For `c1ccc(Sc2ccccc2CN2CCCC2)cc1`, the Activity [2] was “inactive”, the Ki [7] was 0.2 µM and the Ki [9] was 15.8 µM.
With `c1ccc(CN2CCN(CCCSc3cc4ccccc4[nH]3)CC2)cc1` the Activity [2] was “inactive”, the Ki [7] was 2 µM and the Ki [9] was at least 31.6 µM.
In the case of `CC1(C)C=C(c2cc(Br)c(C3=CC(C)(C)NC(C)(C)C3)s2)CC(C)(C)N1`, the Activity [2] is reported as “inactive”, the Ki [7] is reported as 0.398 µM and the Ki [9] is reported as at least 31.6 µM.
With `CC1CCN(CCc2cc3ccccc3[nH]2)CC1` the Activity [2] was “inactive”, the Ki [7] was 10 µM and the EC50 [13] was 10 µM. It also gave a Ki [9] of at least 31.6 µM.
In the case of `c1ccc2c(c1)CC1CNC2c2ccccc21` (stereo not drawn), the Activity [2] is reported as “inactive”, the EC50 [6] is reported as 10 µM and the Ki [7] is reported as 12.6 µM. For the same molecule, the Ki [9] was at least 31.6 µM.
